Test results as given in paper PMC5400543, “Design, sythesis and evaluation of a series of 3- or 4-alkoxy substituted phenoxy derivatives as PPARs agonists” (Oncotarget, 2017).

These molecules were tested against T1, PPARα (Homo sapiens, UniProt Q07869) (assay: In vitro PPARα transactivation assay (Gal4-hPPARαLBD luciferase reporter in 293E cells)). Conditions: 10^−5 M, 24 h, Csamples/Ccontrol, mean±SEM.
T1 construct: pcDNA3.1-hPPARαLBD-Gal4DB; expressed in transfected cells; host or cells: 293E cells
T1 sequence (Q07869 239-466 limits assumed): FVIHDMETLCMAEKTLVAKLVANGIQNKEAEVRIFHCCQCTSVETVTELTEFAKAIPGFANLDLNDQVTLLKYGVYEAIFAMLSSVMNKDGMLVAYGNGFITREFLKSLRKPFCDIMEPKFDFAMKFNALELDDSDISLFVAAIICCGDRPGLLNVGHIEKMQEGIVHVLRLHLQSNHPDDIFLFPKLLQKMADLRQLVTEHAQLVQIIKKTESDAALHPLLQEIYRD
Type: cell-based

SMILES	PPARα Activation Fold
CC(C)(Oc1cccc(OCCn2c3ccccc3c3ccccc32)c1)C(=O)O [6g, 2-(3-(2-(9H-carbazol-9-yl)ethoxy)phenoxy)-2-methylpropanoic acid]	1.40±0.27
CC(C)(Oc1ccc(OCCCn2c3ccccc3c3ccccc32)cc1)C(=O)O [6d, 2-(4-(3-(9H-carbazol-9-yl)propoxy)phenoxy)-2-methylpropanoic acid]	1.96±0.17
CC(C)(Oc1cccc(OCCCn2cnc3ccccc32)c1)C(=O)O [6j, 2-(3-(3-(1H-benzo[d]imidazol-1-yl)propoxy)phenoxy)-2-methylpropanoic acid]	0.97±0.15
CC(C)(Oc1cccc(OCC(=O)c2ccccc2)c1)C(=O)O [6f, 2-Methyl-2-(3-(2-oxo-2-phenylethoxy)phenoxy)propanoic acid]	1.58±0.09
CC(C)(Oc1cccc(OCCn2ccc3ccccc32)c1)C(=O)O [6o, 2-(3-(2-(1H-indol-1-yl)ethoxy)phenoxy)-2-methylpropanoic acid]	1.01±0.11
CC(C)(Oc1ccc(OCCCn2cnc3ccccc32)cc1)C(=O)O [6e, 2-(4-(3-(1H-benzo[d]imidazol-1-yl)propoxy)phenoxy)-2-methylpropanoic acid]	1.38±0.06

Other lines, results leading:

PPARα Activation Fold	SMILES
0.81±0.02	c1cc(OCCn2c3ccccc3c3ccccc32)cc(OCc2nn[nH]n2)c1 [10h, 9-(2-(3-((2H-tetrazol-5-yl)methoxy)phenoxy)ethyl)-9H-carbazole]
1.91±0.13	c1ccc(CCCOc2ccc(OCc3nn[nH]n3)cc2)cc1 [10e, 5-((4-(3-Phenylpropoxy)phenoxy)methyl)-2H-tetrazole]
0.65±0.00	c1cc(OCCCn2c3ccccc3c3ccccc32)cc(OCc2nn[nH]n2)c1 [10j, 9-(3-(3-((2H-tetrazol-5-yl)methoxy)phenoxy)propyl)-9H-carbazole]
0.76±0.04	c1ccc2c(c1)ccn2CCOc1ccc(OCc2nn[nH]n2)cc1 [10a, 1-(2-(4-((2H-tetrazol-5-yl)methoxy)phenoxy)ethyl)-1H-indole]
0.74±0.09	c1ccc(CCCOc2cccc(OCc3nn[nH]n3)c2)cc1 [10k, 5-((3-(3-Phenylpropoxy)phenoxy)methyl)-2H-tetrazole]
0.90±0.05	c1cc(OCCn2ccc3ccccc32)cc(OCc2nn[nH]n2)c1 [10g, 1-(2-(3-((2H-tetrazol-5-yl)methoxy)phenoxy)ethyl)-1H-indole]
0.50±0.04	c1ccc2c(c1)c1ccccc1n2CCCOc1ccc(OCc2nn[nH]n2)cc1 [10d, 9-(3-(4-((2H-tetrazol-5-yl)methoxy)phenoxy)propyl)-9H-carbazole]

Each molecule was assayed against T2, PPARγ (Homo sapiens, UniProt P37231) (assay: not given). Conditions: not given.
T2 sequence (P37231 238-503 limits assumed): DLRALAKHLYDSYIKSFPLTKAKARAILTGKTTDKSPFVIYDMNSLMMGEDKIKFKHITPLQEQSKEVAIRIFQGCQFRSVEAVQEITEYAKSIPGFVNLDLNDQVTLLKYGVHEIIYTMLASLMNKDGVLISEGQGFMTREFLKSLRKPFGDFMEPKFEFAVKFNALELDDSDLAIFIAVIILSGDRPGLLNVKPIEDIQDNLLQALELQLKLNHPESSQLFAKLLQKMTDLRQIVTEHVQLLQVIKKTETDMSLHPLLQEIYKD

Cmax [µM]	SMILES
50	CC(C)(Oc1cccc(OCCn2c3ccccc3c3ccccc32)c1)C(=O)O [6g, 2-(3-(2-(9H-carbazol-9-yl)ethoxy)phenoxy)-2-methylpropanoic acid]
30	c1cc(OCCn2c3ccccc3c3ccccc32)cc(OCc2nn[nH]n2)c1 [10h, 9-(2-(3-((2H-tetrazol-5-yl)methoxy)phenoxy)ethyl)-9H-carbazole]

What follows are molecules tested against T2, PPARγ (assay: cell-based). Conditions: not given.

EC50 [µM]	SMILES
11.8	CC(C)(Oc1cccc(OCCn2c3ccccc3c3ccccc32)c1)C(=O)O [6g, 2-(3-(2-(9H-carbazol-9-yl)ethoxy)phenoxy)-2-methylpropanoic acid]
6.97	c1cc(OCCn2c3ccccc3c3ccccc32)cc(OCc2nn[nH]n2)c1 [10h, 9-(2-(3-((2H-tetrazol-5-yl)methoxy)phenoxy)ethyl)-9H-carbazole]

These molecules were tested against T3, PPARδ (Homo sapiens, UniProt Q03181) (assay: cell-based). Conditions: not given.
T3 sequence (Q03181 211-439 limits assumed): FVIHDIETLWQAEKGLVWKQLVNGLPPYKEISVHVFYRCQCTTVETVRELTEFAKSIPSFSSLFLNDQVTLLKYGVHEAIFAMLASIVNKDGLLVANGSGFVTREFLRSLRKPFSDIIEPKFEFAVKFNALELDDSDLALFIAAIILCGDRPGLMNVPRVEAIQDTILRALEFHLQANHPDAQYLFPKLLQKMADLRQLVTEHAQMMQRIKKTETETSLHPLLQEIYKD

SMILES	EC50 [µM]
CC(C)(Oc1ccc(OCCCn2cnc3ccccc32)cc1)C(=O)O [6e, 2-(4-(3-(1H-benzo[d]imidazol-1-yl)propoxy)phenoxy)-2-methylpropanoic acid]	0.0111

What follows are molecules tested against T2, PPARγ (assay: In vitro PPARγ transactivation assay (Gal4-hPPARγLBD luciferase reporter in 293E cells)). Conditions: 10^−5 M, 24 h, Csamples/Ccontrol, mean±SEM.

SMILES	PPARγ Activation Fold
CC(C)(Oc1cccc(OCCn2c3ccccc3c3ccccc32)c1)C(=O)O [6g, 2-(3-(2-(9H-carbazol-9-yl)ethoxy)phenoxy)-2-methylpropanoic acid]	18.55±0.06
CC(C)(Oc1ccc(OCCCn2c3ccccc3c3ccccc32)cc1)C(=O)O [6d, 2-(4-(3-(9H-carbazol-9-yl)propoxy)phenoxy)-2-methylpropanoic acid]	1.57±0.00
CC(C)(Oc1cccc(OCCCn2cnc3ccccc32)c1)C(=O)O [6j, 2-(3-(3-(1H-benzo[d]imidazol-1-yl)propoxy)phenoxy)-2-methylpropanoic acid]	1.17±0.00
CC(C)(Oc1cccc(OCC(=O)c2ccccc2)c1)C(=O)O [6f, 2-Methyl-2-(3-(2-oxo-2-phenylethoxy)phenoxy)propanoic acid]	1.22±0.01
CC(C)(Oc1cccc(OCCn2ccc3ccccc32)c1)C(=O)O [6o, 2-(3-(2-(1H-indol-1-yl)ethoxy)phenoxy)-2-methylpropanoic acid]	3.01±0.16
CC(C)(Oc1ccc(OCCCn2cnc3ccccc32)cc1)C(=O)O [6e, 2-(4-(3-(1H-benzo[d]imidazol-1-yl)propoxy)phenoxy)-2-methylpropanoic acid]	1.26±0.01

Other lines, results leading:

PPARγ Activation Fold	SMILES
26.81±1.56	c1cc(OCCn2c3ccccc3c3ccccc32)cc(OCc2nn[nH]n2)c1 [10h, 9-(2-(3-((2H-tetrazol-5-yl)methoxy)phenoxy)ethyl)-9H-carbazole]
1.93±0.23	c1ccc(CCCOc2ccc(OCc3nn[nH]n3)cc2)cc1 [10e, 5-((4-(3-Phenylpropoxy)phenoxy)methyl)-2H-tetrazole]
0.69±0.01	c1cc(OCCCn2c3ccccc3c3ccccc32)cc(OCc2nn[nH]n2)c1 [10j, 9-(3-(3-((2H-tetrazol-5-yl)methoxy)phenoxy)propyl)-9H-carbazole]
1.30±0.06	c1ccc2c(c1)ccn2CCOc1ccc(OCc2nn[nH]n2)cc1 [10a, 1-(2-(4-((2H-tetrazol-5-yl)methoxy)phenoxy)ethyl)-1H-indole]
1.46±0.20	c1ccc(CCCOc2cccc(OCc3nn[nH]n3)c2)cc1 [10k, 5-((3-(3-Phenylpropoxy)phenoxy)methyl)-2H-tetrazole]
2.83±0.49	c1cc(OCCn2ccc3ccccc32)cc(OCc2nn[nH]n2)c1 [10g, 1-(2-(3-((2H-tetrazol-5-yl)methoxy)phenoxy)ethyl)-1H-indole]
0.96±0.02	c1ccc2c(c1)c1ccccc1n2CCCOc1ccc(OCc2nn[nH]n2)cc1 [10d, 9-(3-(4-((2H-tetrazol-5-yl)methoxy)phenoxy)propyl)-9H-carbazole]

These molecules were tested against T3, PPARδ (assay: In vitro PPARδ transactivation assay (Gal4-hPPARδLBD luciferase reporter in 293E cells)). Conditions: 10^−5 M, 24 h, Csamples/Ccontrol, mean±SEM.

SMILES	PPARδ Activation Fold
CC(C)(Oc1cccc(OCCn2c3ccccc3c3ccccc32)c1)C(=O)O [6g, 2-(3-(2-(9H-carbazol-9-yl)ethoxy)phenoxy)-2-methylpropanoic acid]	1.28±0.11
CC(C)(Oc1ccc(OCCCn2c3ccccc3c3ccccc32)cc1)C(=O)O [6d, 2-(4-(3-(9H-carbazol-9-yl)propoxy)phenoxy)-2-methylpropanoic acid]	1.13±0.03
CC(C)(Oc1cccc(OCCCn2cnc3ccccc32)c1)C(=O)O [6j, 2-(3-(3-(1H-benzo[d]imidazol-1-yl)propoxy)phenoxy)-2-methylpropanoic acid]	0.86±0.03
CC(C)(Oc1cccc(OCC(=O)c2ccccc2)c1)C(=O)O [6f, 2-Methyl-2-(3-(2-oxo-2-phenylethoxy)phenoxy)propanoic acid]	1.27±0.09
CC(C)(Oc1cccc(OCCn2ccc3ccccc32)c1)C(=O)O [6o, 2-(3-(2-(1H-indol-1-yl)ethoxy)phenoxy)-2-methylpropanoic acid]	1.00±0.24
CC(C)(Oc1ccc(OCCCn2cnc3ccccc32)cc1)C(=O)O [6e, 2-(4-(3-(1H-benzo[d]imidazol-1-yl)propoxy)phenoxy)-2-methylpropanoic acid]	7.09±0.97

Continued, values first:

PPARδ Activation Fold	SMILES
1.16±0.05	c1cc(OCCn2c3ccccc3c3ccccc32)cc(OCc2nn[nH]n2)c1 [10h, 9-(2-(3-((2H-tetrazol-5-yl)methoxy)phenoxy)ethyl)-9H-carbazole]
1.26±0.15	c1ccc(CCCOc2ccc(OCc3nn[nH]n3)cc2)cc1 [10e, 5-((4-(3-Phenylpropoxy)phenoxy)methyl)-2H-tetrazole]
0.88±0.09	c1cc(OCCCn2c3ccccc3c3ccccc32)cc(OCc2nn[nH]n2)c1 [10j, 9-(3-(3-((2H-tetrazol-5-yl)methoxy)phenoxy)propyl)-9H-carbazole]
1.28±0.06	c1ccc2c(c1)ccn2CCOc1ccc(OCc2nn[nH]n2)cc1 [10a, 1-(2-(4-((2H-tetrazol-5-yl)methoxy)phenoxy)ethyl)-1H-indole]
1.24±0.17	c1ccc(CCCOc2cccc(OCc3nn[nH]n3)c2)cc1 [10k, 5-((3-(3-Phenylpropoxy)phenoxy)methyl)-2H-tetrazole]
0.83±0.04	c1cc(OCCn2ccc3ccccc32)cc(OCc2nn[nH]n2)c1 [10g, 1-(2-(3-((2H-tetrazol-5-yl)methoxy)phenoxy)ethyl)-1H-indole]
1.15±0.22	c1ccc2c(c1)c1ccccc1n2CCCOc1ccc(OCc2nn[nH]n2)cc1 [10d, 9-(3-(4-((2H-tetrazol-5-yl)methoxy)phenoxy)propyl)-9H-carbazole]

Same assay, conditions: read-out: Cmax, concentration at maximum efficiency percentage (Max%), PPARδ, 24 h, multiple concentrations

SMILES	Cmax [µM]
CC(C)(Oc1ccc(OCCCn2cnc3ccccc32)cc1)C(=O)O [6e, 2-(4-(3-(1H-benzo[d]imidazol-1-yl)propoxy)phenoxy)-2-methylpropanoic acid]	0.1
